Active and inactive are the calls of the source. No rule for the calls is given here.
Test system: CCRIS mutagenicity, Ames/micronucleus/aberration tests
Assay: CCRIS mutagenicity studies
[1] = Test System: AMES SALMONELLA TYPHIMURIUM, Strain/Indicator: TA98, Metabolic Activation: NONE, Method: STANDARD PLATE
[2] = Test System: AMES SALMONELLA TYPHIMURIUM, Strain/Indicator: TA100, Metabolic Activation: NONE, Method: STANDARD PLATE
[3] = Test System: AMES SALMONELLA TYPHIMURIUM, Strain/Indicator: TA100, Metabolic Activation: NONE, Method: PREINCUBATION

Nc1ccc2cc(S(=O)(=O)O)c(N=Nc3ccc(N=Nc4ccccc4)cc3OCCO)c(O)c2c1 was tested, and the mutagenic call [1] was “inactive; negative”, the mutagenic call (Test System: AMES SALMONELLA TYPHIMURIUM, Strain/Indicator: TA98, Metabolic Activation: RAT, LIVER, S-9, AROCLOR 1254, Method: STANDARD PLATE) was “active; positive” and the mutagenic call [2] was “inactive; negative”. For the same compound, the mutagenic call (Test System: AMES SALMONELLA TYPHIMURIUM, Strain/Indicator: TA100, Metabolic Activation: RAT, LIVER, S-9, AROCLOR 1254, Method: STANDARD PLATE) was “active; positive”, the mutagenic call (Test System: AMES SALMONELLA TYPHIMURIUM, Strain/Indicator: TA1538, Metabolic Activation: NONE, Method: STANDARD PLATE) was “inactive; negative” and the mutagenic call (Test System: AMES SALMONELLA TYPHIMURIUM, Strain/Indicator: TA1538, Metabolic Activation: RAT, LIVER, S-9, AROCLOR 1254, Method: STANDARD PLATE) was “active; positive”.

For CC(=O)/C=C/c1ccc2c(c1)OCO2, the mutagenic call (Test System: AMES SALMONELLA TYPHIMURIUM, Strain/Indicator: TA98, Metabolic Activation: HAMSTER, LIVER, S-9, AROCLOR 1254 (10%), Method: PREINCUBATION) was “inactive; negative”, the mutagenic call (Test System: AMES SALMONELLA TYPHIMURIUM, Strain/Indicator: TA98, Metabolic Activation: NONE, Method: PREINCUBATION) was “inactive; negative” and the mutagenic call (Test System: AMES SALMONELLA TYPHIMURIUM, Strain/Indicator: TA98, Metabolic Activation: RAT, LIVER, S-9, AROCLOR 1254 (10%), Method: PREINCUBATION) was “inactive; negative”. For the same compound, the mutagenic call (Test System: AMES SALMONELLA TYPHIMURIUM, Strain/Indicator: TA100, Metabolic Activation: HAMSTER, LIVER, S-9, AROCLOR 1254 (10%), Method: PREINCUBATION) was “inactive; negative”, the mutagenic call [3] was “inactive; negative” and the mutagenic call (Test System: AMES SALMONELLA TYPHIMURIUM, Strain/Indicator: TA100, Metabolic Activation: RAT, LIVER, S-9, AROCLOR 1254 (10%), Method: PREINCUBATION) was “inactive; negative”. For the same compound, the mutagenic call (Test System: AMES SALMONELLA TYPHIMURIUM, Strain/Indicator: TA1535, Metabolic Activation: HAMSTER, LIVER, S-9, AROCLOR 1254 (10%), Method: PREINCUBATION) was “inactive; negative”, the mutagenic call (Test System: AMES SALMONELLA TYPHIMURIUM, Strain/Indicator: TA1535, Metabolic Activation: NONE, Method: PREINCUBATION) was “inactive; negative” and the mutagenic call (Test System: AMES SALMONELLA TYPHIMURIUM, Strain/Indicator: TA1535, Metabolic Activation: RAT, LIVER, S-9, AROCLOR 1254 (10%), Method: PREINCUBATION) was “inactive; negative”. For the same compound, the mutagenic call (Test System: AMES SALMONELLA TYPHIMURIUM, Strain/Indicator: TA1537, Metabolic Activation: HAMSTER, LIVER, S-9, AROCLOR 1254 (10%), Method: PREINCUBATION) was “inactive; negative”, the mutagenic call (Test System: AMES SALMONELLA TYPHIMURIUM, Strain/Indicator: TA1537, Metabolic Activation: NONE, Method: PREINCUBATION) was “inactive; negative” and the mutagenic call (Test System: AMES SALMONELLA TYPHIMURIUM, Strain/Indicator: TA1537, Metabolic Activation: RAT, LIVER, S-9, AROCLOR 1254 (10%), Method: PREINCUBATION) was “inactive; negative”.

With NC(=O)Oc1ccccc1 the mutagenic call (Test System: E. COLI, Strain/Indicator: WP2 UVRA, Metabolic Activation: NONE, Method: FLUCTUATION TEST) was “inactive; negative”.

In the case of c1ccc(-c2nc(-c3ccccc3)c(-c3ccccc3)[nH]2)cc1, the mutagenic call [1] is reported as “active; positive”, the mutagenic call (Test System: AMES SALMONELLA TYPHIMURIUM, Strain/Indicator: TA98, Metabolic Activation: RAT LIVER S-9, 3-METHYLCHOLANTHRENE, SODIUM PHENOBARBITAL, Method: STANDARD PLATE) is reported as “inactive; negative” and the mutagenic call [2] is reported as “active; positive”. For the same compound, the mutagenic call (Test System: AMES SALMONELLA TYPHIMURIUM, Strain/Indicator: TA100, Metabolic Activation: RAT LIVER S-9, 3-METHYLCHOLANTHRENE, SODIUM PHENOBARBITAL, Method: STANDARD PLATE) was “inactive; negative”.

With CN1CC=C(c2ccccc2)CC1 the mutagenic call [3] was “inactive; negative” and the mutagenic call (Test System: AMES SALMONELLA TYPHIMURIUM, Strain/Indicator: TA102, Metabolic Activation: NONE, Method: PREINCUBATION) was “inactive; negative”.
